Data as given in patent US10392368B2, “Pyrazolo and triazolo bicyclic compounds as JAK kinase inhibitors” (THERAVANCE BIOPHARMA R&D IP, LLC, priority 2017, dated 2019).
Like-named read-outs stand apart in the source and are kept apart here.

Legend:
[1] = system: IL-2 stimulated pSTAT5 in Tall-1 T cells; assay: Cellular JAK3 potency assay: inhibition of IL-2 stimulated pSTAT5 in Tall-1 T cells; type: cell-based, human; conditions: for Tall-1 (pIC50): IL-2 stimulated pSTAT5, Tall-1 T cells; for IC50: Homo sapiens, read-out: Tall-1 (pIC50) (converted)
In short: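 Tall-1 human T cells (45,000/well) in phenol red-free DMEM with 10% FBS were preincubated with compound 1 h at 37 °C, then stimulated with IL-2 (final 300 ng/ml) for 30 min. Lysate pSTAT5 read by AlphaLisa; IC50 from inhibition curves, reported as pIC50 (mean±SD).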

JAK3 = target: T1, JAK3 (Homo sapiens, UniProt P52333); assay: Biochemical JAK3 kinase assay (LanthaScreen); set-up: GST; purchased Life Technologies; conditions: for Ki: read-out: JAK 3 (pKi) (converted)
T1 sequence (P52333 1-1124): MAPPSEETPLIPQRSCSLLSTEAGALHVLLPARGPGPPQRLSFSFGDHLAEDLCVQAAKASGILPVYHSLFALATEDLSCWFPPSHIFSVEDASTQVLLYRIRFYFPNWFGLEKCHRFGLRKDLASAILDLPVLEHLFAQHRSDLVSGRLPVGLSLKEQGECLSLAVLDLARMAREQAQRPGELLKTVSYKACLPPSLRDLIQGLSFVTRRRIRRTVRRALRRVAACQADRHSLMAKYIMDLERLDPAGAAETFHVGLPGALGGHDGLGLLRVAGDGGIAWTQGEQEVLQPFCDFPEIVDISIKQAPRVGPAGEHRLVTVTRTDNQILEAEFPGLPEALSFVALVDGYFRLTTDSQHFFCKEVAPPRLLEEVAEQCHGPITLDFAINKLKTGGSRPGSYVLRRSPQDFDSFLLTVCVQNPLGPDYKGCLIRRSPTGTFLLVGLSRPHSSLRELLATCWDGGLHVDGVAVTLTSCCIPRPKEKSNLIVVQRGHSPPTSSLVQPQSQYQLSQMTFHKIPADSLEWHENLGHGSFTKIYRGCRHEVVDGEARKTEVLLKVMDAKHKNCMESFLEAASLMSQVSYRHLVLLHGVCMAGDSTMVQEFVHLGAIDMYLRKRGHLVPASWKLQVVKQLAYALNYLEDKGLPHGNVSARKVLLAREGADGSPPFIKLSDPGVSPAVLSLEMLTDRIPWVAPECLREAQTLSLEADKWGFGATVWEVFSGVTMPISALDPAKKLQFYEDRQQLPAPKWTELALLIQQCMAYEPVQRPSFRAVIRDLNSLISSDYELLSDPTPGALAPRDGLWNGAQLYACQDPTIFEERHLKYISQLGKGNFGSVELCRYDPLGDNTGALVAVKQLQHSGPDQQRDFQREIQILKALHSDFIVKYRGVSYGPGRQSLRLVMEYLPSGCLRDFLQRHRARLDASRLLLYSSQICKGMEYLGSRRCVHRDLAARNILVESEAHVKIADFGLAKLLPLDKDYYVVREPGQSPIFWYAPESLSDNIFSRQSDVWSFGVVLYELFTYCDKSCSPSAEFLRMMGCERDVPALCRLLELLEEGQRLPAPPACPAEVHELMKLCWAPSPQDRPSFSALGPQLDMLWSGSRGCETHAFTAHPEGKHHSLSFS
In short: (§1)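 Values are pKi, calculated by Cheng-Prusoff from IC50 obtained by robust 4-parameter fitting of percent inhibition. The kinase reaction used GFP-STAT1 peptide in HEPES pH 7.5 buffer with MgCl2, EGTA and Brij-35, ATP-initiated after compound pre-incubation, 1 h at ambient temperature.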

JAK1 = target: T2, JAK1 (Homo sapiens, UniProt P23458); assay: Biochemical JAK1 kinase assay (LanthaScreen); conditions: for Ki: read-out: JAK 1 (pKi) (converted)
T2 construct: GST; purchased Life Technologies
In short: as §1

[2] = selectivity JAK3 over JAK1, difference of pKi
[3] = TALL-1, IL-2 stimulated pSTAT5, Tall-1 T cells
[4] = TALL-1, IL-2 stimulated pSTAT5 in Tall-1 T cells
[5] = selectivity: difference of pKi JAK3 and pKi JAK1

T2 sequence (P23458 whole entry): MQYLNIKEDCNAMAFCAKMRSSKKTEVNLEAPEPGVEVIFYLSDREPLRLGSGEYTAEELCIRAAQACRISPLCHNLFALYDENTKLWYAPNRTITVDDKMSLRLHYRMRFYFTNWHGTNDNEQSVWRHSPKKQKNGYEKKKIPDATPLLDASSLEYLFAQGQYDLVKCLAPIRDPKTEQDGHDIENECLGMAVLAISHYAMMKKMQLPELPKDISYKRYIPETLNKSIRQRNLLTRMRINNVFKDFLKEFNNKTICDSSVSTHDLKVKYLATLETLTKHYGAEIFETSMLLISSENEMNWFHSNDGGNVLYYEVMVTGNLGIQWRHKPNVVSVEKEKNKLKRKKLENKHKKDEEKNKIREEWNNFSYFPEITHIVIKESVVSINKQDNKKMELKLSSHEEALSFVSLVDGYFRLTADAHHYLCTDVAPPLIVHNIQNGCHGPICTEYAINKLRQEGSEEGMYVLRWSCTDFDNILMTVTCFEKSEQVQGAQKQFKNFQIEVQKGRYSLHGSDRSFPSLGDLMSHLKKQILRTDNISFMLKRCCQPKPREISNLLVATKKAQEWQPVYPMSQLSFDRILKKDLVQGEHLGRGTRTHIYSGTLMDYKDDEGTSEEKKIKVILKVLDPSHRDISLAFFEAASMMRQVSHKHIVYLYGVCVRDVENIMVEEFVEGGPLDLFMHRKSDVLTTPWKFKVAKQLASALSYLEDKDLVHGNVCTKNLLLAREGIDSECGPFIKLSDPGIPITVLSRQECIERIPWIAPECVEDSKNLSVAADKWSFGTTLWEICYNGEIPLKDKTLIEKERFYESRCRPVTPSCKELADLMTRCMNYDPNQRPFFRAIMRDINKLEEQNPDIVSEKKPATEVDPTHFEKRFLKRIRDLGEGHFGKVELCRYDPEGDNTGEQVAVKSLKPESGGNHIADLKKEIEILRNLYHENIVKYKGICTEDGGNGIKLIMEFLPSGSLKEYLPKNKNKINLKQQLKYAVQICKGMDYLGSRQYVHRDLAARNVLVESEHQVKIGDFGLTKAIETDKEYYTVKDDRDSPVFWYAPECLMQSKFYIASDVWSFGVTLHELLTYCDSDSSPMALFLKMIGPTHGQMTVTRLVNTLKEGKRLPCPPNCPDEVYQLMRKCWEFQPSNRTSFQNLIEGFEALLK

| Structure (SMILES) | Tall-1 (pIC50) [1] | JAK 3 (pKi) (JAK3) | JAK3 (pKi)-JAK1 (pKi) (JAK3; [2]) | JAK 1 (pKi) (JAK1) | IC50 [1, 3] [µM] | Ki (JAK3) [µM] | Ki (JAK1) [µM] | IC50 [1, 4] [µM] | JAK3 (pKi)-JAK1 (pKi) (JAK3; [5]) |
| --- | --- | --- | --- | --- | --- | --- | --- | --- | --- |
| CN(C)CC=CC(=O)N1C2CCC1CC(Oc1cc(-c3ccc(O)c(Cl)c3)cc3[nH]ncc13)C2 (centres unmarked) [Compound 10-3] | B (a pIC50 value between 6.7 (included) and 7.5 (IC50 between 200 nM and 32 nM)) | B (a pKi value between 9 and 10 (Ki between 1 nM and 0.1 nM)) | B (a value of 2.3 to 3) | D (a pKi value between 7 and 8 (Ki between 100 nM and 10 nM)) |  |  |  |  |  |
| C=CC(=O)N1CCCC(Oc2cc(-c3ccc(O)c(F)c3)nc3[nH]ncc23)C1 (centres unmarked) [Compound 8-8] | B (a pIC50 value between 6.7 (included) and 7.5 (IC50 between 200 nM and 32 nM)) | A (a pKi value≥10 (Ki≤0.1 nM)) | A (a value of 3 or above) | E (a pKi value of 7 or below (Ki of 100 nM or above)) |  |  |  |  |  |
| CN(C)C/C=C/C(=O)N1CC(Oc2cc(-c3ccc(O)cc3)cc3[nH]ncc23)(C(F)(F)F)C1 [Compound 5-25] | A (a pIC50 value≥7.5 (IC50≤32 nM)) | B (a pKi value between 9 and 10 (Ki between 1 nM and 0.1 nM)) | A (a value of 3 or above) | E (a pKi value of 7 or below (Ki of 100 nM or above)) |  |  |  |  |  |
| C=CC(=O)N1CCC(C)(Oc2cc(-c3ccc(O)c(F)c3)cc3[nH]ncc23)CC1 [Compound 6-7] |  |  | A (a value of 3 or above) |  | < 0.0316 | 0.0001 to 0.001 | > 0.1 |  |  |
| CN(C)CC=CC(=O)N1C2CCC1CC(Oc1cc(-c3ccc(O)c(Cl)c3)cc3[nH]ncc13)C2 (centres unmarked) [Compound 9-3] | C (a pIC50 value between 6 and 6.7 (IC50 between 1 μM and 200 nM)) | B (a pKi value between 9 and 10 (Ki between 1 nM and 0.1 nM)) | C (a value of 1.8 to 2.3) | E (a pKi value of 7 or below (Ki of 100 nM or above)) |  |  |  |  |  |
| C=CC(=O)N1CC[C@H](Oc2cc(-c3ccc(O)c(Cl)c3)nc3[nH]nc(C)c23)C1 [Compound 1-32] |  |  |  |  |  | 0.0001 to 0.001 | > 0.1 | 0.2 to 1 | A (a value of 3 or above) |
| C=CC(=O)N1CCC[C@H](Oc2nc(-c3ccc(O)c(F)c3)nc3[nH]ncc23)C1 [Compound 8-13] | C (a pIC50 value between 6 and 6.7 (IC50 between 1 μM and 200 nM)) | B (a pKi value between 9 and 10 (Ki between 1 nM and 0.1 nM)) | A (a value of 3 or above) | E (a pKi value of 7 or below (Ki of 100 nM or above)) |  |  |  |  |  |
| C=CC(=O)N1CC[C@H](Oc2cc(-c3cc(F)c(O)cc3F)cc3[nH]nc(C)c23)C1 [Compound 1-30] |  |  |  |  |  | < 0.0001 | 0.01 to 0.1 | 0.0316 to 0.2 | B (a value of 2.3 to 3) |
| C=CC(=O)N1C2CCC1CC(Oc1nc(-c3ccc(O)cc3)nc3[nH]ncc13)C2 (centres unmarked) [Compound 9-11] | B (a pIC50 value between 6.7 (included) and 7.5 (IC50 between 200 nM and 32 nM)) | A (a pKi value≥10 (Ki≤0.1 nM)) | A (a value of 3 or above) | E (a pKi value of 7 or below (Ki of 100 nM or above)) |  |  |  |  |  |
| C=CC(=O)N1CC(COc2cc(-c3ccc(O)cc3)cc3[nH]nc(Cl)c23)C1 [Compound 18-14] | B (a pIC50 value between 6.7 (included) and 7.5 (IC50 between 200 nM and 32 nM)) | B (a pKi value between 9 and 10 (Ki between 1 nM and 0.1 nM)) | A (a value of 3 or above) | E (a pKi value of 7 or below (Ki of 100 nM or above)) |  |  |  |  |  |
| CN1CCC[C@@H]1/C=C/C(=O)N1CC[C@H](Oc2cc(-c3ccc(O)cc3)cc3[nH]ncc23)C1 [Compound 15, (E)-1-((S)-3-((6-(4-hydroxyphenyl)-1H-indazol-4-yl)oxy)pyrrolidin-1-yl)-3-((R)-1-methylpyrrolidin-2-yl)prop-2-en-1-one] |  |  |  |  |  | 0.0001 to 0.001 | > 0.1 | 0.2 to 1 | A (a value of 3 or above) |
| C=CC(=O)N1CC[C@@H]1COc1cc(-c2ccc(O)cc2)cc2[nH]ncc12 [Compound 12-23] |  |  | A (a value of 3 or above) |  | 0.0316 to 0.2 | 0.0001 to 0.001 | > 0.1 |  |  |
| C#CC(=O)N1CC(COc2cc(-c3ccc(O)cc3)cc3[nH]ncc23)C1 [Compound 3-84] |  |  |  |  |  | < 0.0001 | > 0.1 | 0.0316 to 0.2 | A (a value of 3 or above) |
| C=CC(=O)N1CCO[C@@H](C(=O)Nc2cc(-c3ccc(O)c(F)c3)cc3[nH]ncc23)C1 [Compound 13-3] | A (a pIC50 value≥7.5 (IC50≤32 nM)) | A (a pKi value≥10 (Ki≤0.1 nM)) | A (a value of 3 or above) | E (a pKi value of 7 or below (Ki of 100 nM or above)) |  |  |  |  |  |
| CN(C)CC=CC(=O)N1CCCC(Oc2nc(-c3ccc(O)c(F)c3)cc3[nH]ncc23)C1 (centres unmarked) [Compound 8-9] | C (a pIC50 value between 6 and 6.7 (IC50 between 1 μM and 200 nM)) | B (a pKi value between 9 and 10 (Ki between 1 nM and 0.1 nM)) | B (a value of 2.3 to 3) | E (a pKi value of 7 or below (Ki of 100 nM or above)) |  |  |  |  |  |
| C=CC(=O)N1CCC(Oc2cc(-c3ccc(O)cc3)cc3[nH]ncc23)C(F)(F)C1 (centres unmarked) [Compound 6-8] |  |  | B (a value of 2.3 to 3) |  | < 0.0316 | < 0.0001 | 0.01 to 0.1 |  |  |
| C=CC(=O)N1C2CCC1CC(Oc1nc(-c3ccc(O)c(F)c3)cc3[nH]ncc13)C2 (centres unmarked) [Compound 9-10] | A (a pIC50 value≥7.5 (IC50≤32 nM)) | B (a pKi value between 9 and 10 (Ki between 1 nM and 0.1 nM)) | A (a value of 3 or above) | E (a pKi value of 7 or below (Ki of 100 nM or above)) |  |  |  |  |  |
| C=CC(=O)N1CC(COc2cc(-c3ccc(O)cc3)cc3[nH]nc(C)c23)C1 [Compound 18-5] |  |  | B (a value of 2.3 to 3) |  | < 0.0316 | 0.0001 to 0.001 | 0.01 to 0.1 |  |  |
| C=CC(=O)N1CCC(Oc2cc(-c3ccc(O)c(F)c3)cc3[nH]ncc23)CC1 [Compound 6-14] |  |  | B (a value of 2.3 to 3) |  | < 0.0316 | < 0.0001 | 0.01 to 0.1 |  |  |
| C=CC(=O)N1CC(F)(C2(Oc3cc(-c4ccc(O)cc4)cc4[nH]ncc34)CC2)C1 [Compound 12-37] |  |  | B (a value of 2.3 to 3) |  | 0.0316 to 0.2 | 0.0001 to 0.001 | 0.01 to 0.1 |  |  |
